In ChEMBL document CHEMBL1909046, “DrugMatrix in vitro pharmacology data”:
pIC50, pKi: −log10 of the molar value.

Assays:
[1] = molecular target: Histamine H2 receptor (Homo sapiens, UniProt P25021); type: cell membranes, CHO-K1, Membrane; conditions: cho-k1; further: in other assays of this panel Not Active means under 50% inhibition at 10 µM
[2] = molecular target: T1, Alpha-1A adrenergic receptor (Rattus norvegicus, UniProt P43140); experiment: DRUGMATRIX: Alpha-1A adrenergic receptor radioligand binding (ligand: prazosin); type: cell membranes, Wistar, Submaxillary gland, Membrane; conditions: Not Active = under 50% inhibition at 10 µM; for pIC50: read-out: IC50; for pKi: read-out: Ki
T1 sequence (P43140 whole entry): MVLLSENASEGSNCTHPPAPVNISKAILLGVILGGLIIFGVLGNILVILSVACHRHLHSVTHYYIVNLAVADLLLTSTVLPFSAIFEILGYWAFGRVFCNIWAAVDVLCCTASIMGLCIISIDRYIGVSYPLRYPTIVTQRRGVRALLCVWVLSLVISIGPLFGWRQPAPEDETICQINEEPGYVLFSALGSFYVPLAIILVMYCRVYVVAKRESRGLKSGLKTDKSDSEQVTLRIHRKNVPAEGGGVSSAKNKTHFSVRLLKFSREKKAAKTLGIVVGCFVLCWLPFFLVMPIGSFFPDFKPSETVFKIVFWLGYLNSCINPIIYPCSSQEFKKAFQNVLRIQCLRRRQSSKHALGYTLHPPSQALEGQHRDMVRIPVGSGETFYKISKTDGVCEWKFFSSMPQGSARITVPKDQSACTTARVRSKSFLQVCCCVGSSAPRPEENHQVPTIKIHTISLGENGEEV

[3] = molecular target: Beta-2 adrenergic receptor (Homo sapiens, UniProt P07550); experiment: DRUGMATRIX: Adrenergic beta2 radioligand binding (ligand: [3H] CGP-12177); type: cell membranes, CHO, Membrane; conditions: Not Active = under 50% inhibition at 10 µM; for IC50 / Ki: cho
[4] = molecular target: T2, Receptor-type tyrosine-protein phosphatase C (Homo sapiens, UniProt P08575); design: species or system Escherichia coli;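 further: inhibition of CD45 enzyme activity measured using DiFMUP as substrate; in other assays of this panel Not Active means under 50% inhibition at 10 µM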
T2 sequence (P08575 whole entry): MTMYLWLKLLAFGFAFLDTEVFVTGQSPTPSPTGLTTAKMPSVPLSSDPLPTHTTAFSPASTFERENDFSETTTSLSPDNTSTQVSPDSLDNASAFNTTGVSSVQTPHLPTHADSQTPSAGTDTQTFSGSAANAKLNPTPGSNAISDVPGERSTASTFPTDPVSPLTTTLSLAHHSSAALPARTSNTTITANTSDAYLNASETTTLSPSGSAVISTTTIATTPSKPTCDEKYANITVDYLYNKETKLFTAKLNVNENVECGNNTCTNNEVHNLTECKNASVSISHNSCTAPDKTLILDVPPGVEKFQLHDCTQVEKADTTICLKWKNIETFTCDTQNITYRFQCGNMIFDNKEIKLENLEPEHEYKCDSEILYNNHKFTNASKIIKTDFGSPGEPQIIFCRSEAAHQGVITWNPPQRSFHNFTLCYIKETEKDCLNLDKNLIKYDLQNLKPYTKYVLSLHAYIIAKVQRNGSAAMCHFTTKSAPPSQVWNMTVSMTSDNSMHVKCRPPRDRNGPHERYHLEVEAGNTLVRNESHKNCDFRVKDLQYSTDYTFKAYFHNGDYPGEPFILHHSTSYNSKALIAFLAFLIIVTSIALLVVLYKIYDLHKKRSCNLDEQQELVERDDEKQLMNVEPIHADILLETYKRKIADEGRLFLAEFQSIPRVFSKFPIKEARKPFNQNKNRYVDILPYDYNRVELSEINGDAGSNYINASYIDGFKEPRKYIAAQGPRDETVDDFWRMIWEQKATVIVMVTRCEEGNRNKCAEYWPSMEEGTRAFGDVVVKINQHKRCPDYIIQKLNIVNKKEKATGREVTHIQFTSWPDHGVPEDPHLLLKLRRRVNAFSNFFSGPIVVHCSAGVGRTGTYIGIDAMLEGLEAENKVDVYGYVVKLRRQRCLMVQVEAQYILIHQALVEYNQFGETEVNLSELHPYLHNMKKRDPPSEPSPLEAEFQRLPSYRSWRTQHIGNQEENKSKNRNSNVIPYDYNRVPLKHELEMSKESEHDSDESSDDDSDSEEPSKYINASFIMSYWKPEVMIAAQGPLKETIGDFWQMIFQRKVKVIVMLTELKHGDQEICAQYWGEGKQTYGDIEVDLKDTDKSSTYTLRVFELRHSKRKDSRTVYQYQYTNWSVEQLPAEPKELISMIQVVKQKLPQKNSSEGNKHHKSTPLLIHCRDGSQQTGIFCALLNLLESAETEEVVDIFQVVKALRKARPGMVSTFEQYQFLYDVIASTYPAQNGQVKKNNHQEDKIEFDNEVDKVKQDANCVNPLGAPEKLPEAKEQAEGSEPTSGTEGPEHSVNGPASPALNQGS

Sequence of Histamine H2 receptor (P25021 whole entry): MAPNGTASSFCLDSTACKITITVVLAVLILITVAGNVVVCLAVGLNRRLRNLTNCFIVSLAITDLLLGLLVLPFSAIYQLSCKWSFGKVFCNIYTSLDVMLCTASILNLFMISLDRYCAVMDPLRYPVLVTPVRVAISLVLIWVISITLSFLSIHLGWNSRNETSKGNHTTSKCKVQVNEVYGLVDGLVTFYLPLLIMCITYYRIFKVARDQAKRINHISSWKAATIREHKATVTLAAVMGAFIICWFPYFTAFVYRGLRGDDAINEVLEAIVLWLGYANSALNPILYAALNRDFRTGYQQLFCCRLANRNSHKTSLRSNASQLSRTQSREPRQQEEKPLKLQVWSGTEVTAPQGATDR

Compound | IC50 [1] | IC50 [2] | IC50 [3] | IC50 [4] | Ki [1] | Ki [2] | Ki [3] | Ki [4] | pIC50 [2] | pKi [2] | pIC50 ([3]; read-out: IC50) | pKi ([3]; read-out: Ki)
C=C(CC)C(=O)c1ccc(OCC(=O)O)c(Cl)c1Cl [ETHACRYNIC ACID] | Not Active | Not Active | Not Active | Not Active | – | – | – | – | – | – | – | –
CC(C(=O)O)c1ccc(-c2ccccc2)c(F)c1 (stereo not drawn) [FLURBIPROFEN] | Not Active | Not Active | Not Active | Not Active | – | – | – | – | – | – | – | –
COc1ccccc1OCC(O)COC(N)=O (stereo not drawn) [METHOCARBAMOL] | Not Active | Not Active | Not Active | Not Active | – | – | – | – | – | – | – | –
CC(C(=O)O)c1ccc(CC2CCCC2=O)cc1 (stereo not drawn) [LOXOPROFEN] | Not Active | Not Active | Not Active | Not Active | – | – | – | – | – | – | – | –
CCCCC1C(=O)N(c2ccccc2)N(c2ccccc2)C1=O [PHENYLBUTAZONE] | Not Active | Not Active | Not Active | Not Active | – | – | – | – | – | – | – | –
CCN[C@@H](C)Cc1cccc(C(F)(F)F)c1 [DEXFENFLURAMINE] | Not Active | Not Active | Not Active | Not Active | – | – | – | – | – | – | – | –
COc1ccccc1OCC(O)CO (stereo not drawn) [GUAIFENESIN] | Not Active | Not Active | Not Active | Not Active | – | – | – | – | – | – | – | –
CCC(=O)O[C@H]1[C@H](O[C@@H]2[C@@H](C)[C@H](O[C@H]3C[C@@](C)(OC)[C@@H](O)[C@H](C)O3)[C@@H](C)C(=O)O[C@H](CC)[C@@](C)(O)[C@H](O)[C@@H](C)C(=O)[C@H](C)C[C@@]2(C)O)O[C@H](C)C[C@@H]1N(C)C [ERYTHROMYCIN PROPIONATE] | Not Active | Not Active | Not Active | Not Active | – | – | – | – | – | – | – | –
C=C1/C(=C\C=C2/CCC[C@]3(C)[C@@H]([C@H](C)CCCC(C)C)CC[C@@H]23)C[C@@H](O)C[C@@H]1O [ALFACALCIDOL] | Not Active | Not Active | Not Active | Not Active | – | – | – | – | – | – | – | –
CS(=O)(=O)OCCCCOS(C)(=O)=O [BUSULFAN] | Not Active | Not Active | Not Active | Not Active | – | – | – | – | – | – | – | –
C[C@]12CCC(=O)C=C1CC[C@@H]1[C@@H]2[C@@H](O)C[C@@]2(C)[C@H]1CC[C@]2(O)C(=O)CO [HYDROCORTISONE] | Not Active | Not Active | Not Active | Not Active | – | – | – | – | – | – | – | –
POLYVINYL ALCOHOL | Not Active | Not Active | Not Active | Not Active | Not Active | Not Active | Not Active | Not Active | – | – | – | –
COBALT(II) ACETYLACETONATE | Not Active | Not Active | Not Active | Not Active | Not Active | Not Active | Not Active | Not Active | – | – | – | –
Nc1nc(N)nc(NC2CC2)n1 [CYROMAZINE] | Not Active | Not Active | Not Active | Not Active | – | – | – | – | – | – | – | –
CN(C(=O)CCCOc1ccc2[nH]c(=O)ccc2c1)C1CCCCC1 [CILOSTAMIDE] | Not Active | Not Active | Not Active | Not Active | – | – | – | – | – | – | – | –
CC(C)(Oc1ccc(C2CC2(Cl)Cl)cc1)C(=O)O (stereo not drawn) [CIPROFIBRATE] | Not Active | Not Active | Not Active | Not Active | – | – | – | – | – | – | – | –
Cc1cn[nH]c1 [FOMEPIZOLE] | Not Active | Not Active | Not Active | Not Active | – | – | – | – | – | – | – | –
CCc1oc2ccccc2c1C(=O)c1cc(Br)c(O)c(Br)c1 [BENZBROMARONE] | Not Active | Not Active | Not Active | Not Active | – | – | – | – | – | – | – | –

Compound | IC50 [1] | IC50 [2] | IC50 [3] | IC50 [4] | Ki [1] | Ki [2] | Ki [3] | Ki [4] | pIC50 [2] | pKi [2] | pIC50 ([3]; read-out: IC50) | pKi ([3]; read-out: Ki)
CN1C[C@H](C(=O)N[C@]2(C)O[C@@]3(O)[C@@H]4CCCN4C(=O)[C@H](Cc4ccccc4)N3C2=O)C[C@@H]2c3cccc4[nH]cc(c34)C[C@H]21 [DIHYDROERGOTAMINE] | Not Active | – | Not Active | Not Active | – | – | – | – | 8.30 | 8.69 | – | –
CNC(=C[N+](=O)[O-])NCCSCc1csc(CN(C)C)n1 [NIZATIDINE] | Not Active | Not Active | Not Active | Not Active | – | – | – | – | – | – | – | –
CCC[C@@H]1C[C@@H](C(=O)N[C@@H]([C@H]2O[C@H](SC)[C@H](O)[C@@H](O)[C@H]2O)[C@H](C)Cl)N(C)C1 [CLINDAMYCIN] | Not Active | Not Active | Not Active | Not Active | – | – | – | – | – | – | – | –
CC(=O)O[C@]1(C(C)=O)CC[C@H]2[C@@H]3C=C(Cl)C4=CC(=O)[C@@H]5C[C@@H]5[C@]4(C)[C@H]3CC[C@@]21C [CYPROTERONE ACETATE] | Not Active | Not Active | Not Active | Not Active | – | – | – | – | – | – | – | –
CN(Cc1cnc2nc(N)nc(N)c2n1)c1ccc(C(=O)N[C@@H](CCC(=O)O)C(=O)O)cc1 [METHOTREXATE] | Not Active | Not Active | Not Active | Not Active | – | – | – | – | – | – | – | –
C/C=C\c1ccc(O)c(OC)c1 [ISOEUGENOL] | Not Active | Not Active | Not Active | Not Active | – | – | – | – | – | – | – | –
Cc1cnc(C(=O)NCCc2ccc(S(=O)(=O)NC(=O)NC3CCCCC3)cc2)cn1 [GLIPIZIDE] | Not Active | Not Active | Not Active | – | – | – | – | – | – | – | – | –
CC(CCc1ccc(O)cc1)NCCc1ccc(O)c(O)c1 (stereo not drawn) [DOBUTAMINE] | Not Active | – | – | Not Active | – | – | – | – | 6.96 | 7.35 | 5.82 | 5.98
Nc1nc(Cl)nc2c1ncn2[C@H]1C[C@H](O)[C@@H](CO)O1 [CLADRIBINE] | Not Active | Not Active | Not Active | Not Active | – | – | – | – | – | – | – | –
Cc1cccc(Nc2cc(Cl)nc(SCC(=O)O)n2)c1C [PIRINIXIC ACID] | Not Active | Not Active | Not Active | Not Active | – | – | – | – | – | – | – | –
INSULIN HUMAN | Not Active | Not Active | Not Active | Not Active | Not Active | Not Active | Not Active | Not Active | – | – | – | –
CCn1cc(C(=O)O)c(=O)c2cc(F)c(N3CCNCC3)nc21 [ENOXACIN] | Not Active | Not Active | Not Active | Not Active | – | – | – | – | – | – | – | –
O=C(O)c1cc(=O)c2c(OCC(O)COc3cccc4oc(C(=O)O)cc(=O)c34)cccc2o1 [CROMOLYN] | Not Active | Not Active | Not Active | Not Active | – | – | – | – | – | – | – | –
CC(=O)OCC(CCn1cnc2cnc(N)nc21)COC(C)=O [FAMCICLOVIR] | Not Active | Not Active | Not Active | Not Active | – | – | – | – | – | – | – | –
O=P1(N(CCCl)CCCl)NCCCO1 (stereo not drawn) [CYCLOPHOSPHAMIDE ANHYDROUS] | Not Active | Not Active | Not Active | Not Active | – | – | – | – | – | – | – | –
O=c1cc(-c2ccccc2)oc2ccc3ccccc3c12 [BETA-NAPHTHOFLAVONE] | Not Active | Not Active | Not Active | Not Active | – | – | – | – | – | – | – | –
N=C(N)N/N=C/c1c(Cl)cccc1Cl [GUANABENZ] | Not Active | – | Not Active | Not Active | – | – | – | – | – | – | – | –
